Data published in US20230203081A1, “LINCOSAMIDE ANTIBIOTICS AND USES THEREOF” (President and Fellows of Harvard College, priority 2020, published 2023).
Read-outs that look alike come from different tables or passages of the source.

Experiments:
E. faecalis VRE = assay: MIC (CLSI), first E. faecalis VRE line of Table 4; format: cell-based; details: Enterococcus faecalis, VRE
Description: (§1) Minimum inhibitory concentrations (MICs) were determined by broth microdilution method or agar dilution method following the Clinical and Laboratory Standards Institute guidelines. Standard bacterial strains were obtained from American Type Culture Collection (ATCC). Other bacterial strains were obtained from hospitals and commercial sources, so noted in Table 11. Before the start of the MIC experiment, standard and test compound stock solutions were prepared in dimethyl sulfoxide (DMSO, Aldrich D2650) at a stock concentration of 5,120 μg/mL. The compound concentration range typically employed for each experiment was 128-0.06 μg/mL (2.5% final DMSO concentration). Clindamycin was used as a comparator in all experiments and each experiment was performed in triplicate. Specialized procedures were employed for streptococcal and anaerobic strains. All other bacterial strains were sub-cultured on blood agar plates (tryptic soy agar with 5% sheep blood, Hardy Diagnostics) and incubated overnight at 35° C. Organisms were suspended in cation-adjusted Mueller-Hinton broth (CaMHB, BD 212322) and optical density was adjusted to 0.5 McFarland standard. Suspensions were further diluted to obtain a final inoculum of 5×10^5 CFU/mL for broth microdilution experiments.

[1] = tested on: methicillin-resistant Staphylococcus aureus (MRSA); assay: MIC, panel of clinically derived MRSA strains; format: cell-based; details: result in words
Description: as §1

[2] = tested on: Enterococcus faecium and Enterococcus faecalis strains resistant to vancomycin, linezolid, azithromycin, ciprofloxacin, levofloxacin, gentamicin, and …; format: cell-based; details: panel of E. faecium and E. faecalis strains resistant to vancomycin, doxycycline
Description: as §1

E. coli strain SQ110DTC = assay: Selection of FSA-513018b resistant mutants in SQ110DTC; format: cell-based; details: SQ110DTC plated on agar containing FSA-513018b
Description: […]. […] Approximately 20 colonies appeared on both plates after incubation at 37° C. for 24 h. The segment of the 23S rRNA gene corresponding to domains V and VI of the 23S rRNA was PCR-amplified from 14 randomly selected colonies using the primers 2020R (CCCGAGACTCAGTGAAATTGAACTC) and L2904 (AAG GTT AAG CCT CAC GG). PCR products were sequenced using the primer L2667 (GGTCCTCTCGTACTAGGAGCAG).

[3] = tested on: susceptible S. aureus and E. faecium strains; assay: Post-antibiotic effect (PAE) and post-antibiotic sub-MIC effect (PA-SME); format: cell-based; details: following brief exposure; result in words
Description: Post-antibiotic and post-antibiotic sub-MIC effect: Measurements of PAE and PA-SME durations were performed according to the methods described by Odenholt-Tornqvist and co-workers. […] A flask containing the unexposed bacterial strain was left as untreated control. Post-exposure, 100 μL of bacterial culture was diluted in 900 μL of sterile CaMHB; 100 μL of this diluted sample was immediately diluted further in 19.9 mL of sterile CaMHB (1:2,000 final dilution). […] Flasks were incubated at 37° C. in a shaker incubator (110 rpm). Samples (100 μL from each flask per time point) were collected at 0, 1, 3, 6, and 24 h from each flask and were serially diluted. From each dilution, 100 μL and 10 μL from each dilution were plated in duplicate on TSA plates. Plates were incubated overnight at 35° C. to determine the bacterial counts (limit of detection=20 CFU/plate or 2×10^2 CFU/mL). These counts were plotted against time with linear interpolation between time points to obtain the growth-kinetic curves. PAE and PA-SME were determined from these curves using the formulae: […]
where T is the time required for bacteria previously exposed to antibiotic to multiply 1 log10 above counts immediately following dilution, and C is the corresponding time required for untreated culture to do the same; and […]

[4] = Mouse pharmacokinetics i.v. and p.o.; set-up: species or system mice; details: in vivo, 60 mg/kg
[5] = Plasma protein binding, species m; format: in vitro ADME; details: mouse
[6] = Plasma protein binding, species h; format: in vitro ADME; details: human
A. baumanii ATCC 19606 = assay: Murine neutropenic thigh infection model; format: in vivo, mice; details: neutropenic mouse thigh, A. baumanii ATCC 19606 (FIG. 4C)
S. pyogenes ATCC 19615 [7] = format: in vivo
Description: The optical density of the bacterial suspension was adjusted to 0.1 at 600 nm using sterile BHIB and was then further diluted 1:1 in 10% hog gastric mucin (HGM, type III) to prepare the infecting inoculum in 5% HGM. Mice were infected by intraperitoneal injection of 250 μL, infecting inoculum, representing 1-2×10^6 CFU per animal. […] Animals were monitored for survival for seven days following infection.

[8] = mouse, microsomes
S. pyogenes ATCC 19615 [9] = assay: Murine neutropenic thigh infection model; details: neutropenic mouse thigh, S. pyogenes ATCC 19615, 24 h after a single intraperitoneal dose of 60 mg/kg
Description: (§2) Animal studies: Animal experiments were performed at the Biology Research Infrastructure Laboratory of Harvard University following IACUC-approved protocols. Animals were maintained in accordance with National Research Council guidelines. Pathogen-free, 5-6-week-old, female CD-1 mice weighing 22-26 grams were obtained from Charles River Laboratories, Inc. (Kingston, N.Y.). Animals were acclimated for a minimum of three days prior to start of the studies. Mice were caged as a group of four per cage, were housed at 21-23° C. with humidity ranging from 30-70%, were exposed to 12-hour light and dark cycles, and were supplied with food and water ad libitum.
(§3) Mouse thigh infection studies: Mice were rendered neutropenic by administering cyclophosphamide intraperitoneally, 150 mg/kg four days prior, and 100 mg/kg one day prior to infection. Bacterial strains were cultured overnight on blood agar plates at 35° C. in 5% CO2. […] Homogenates were serially diluted and plated on blood agar plates (each sample was plated in duplicate), and bacterial counts (log10 CFU/thigh) were determined after incubating the plates overnight at 35° C. in 5% CO2. Each experiment was repeated twice, and mean values were calculated (n=4 mice per time point).

S. aureus (MRSA) = assay: Murine neutropenic thigh infection model; details: neutropenic mouse thigh, 24 h after a single intraperitoneal dose of 60 mg/kg
Description: as §2, §3

CCC[C@@H]1C[C@@H](C(=O)N[C@@H]([C@H]2O[C@H](SC)[C@H](O)[C@@H](O)[C@H]2O)[C@H](C)Cl)N(C)C1 [Clindamycin, clindamycin, reference compound]
MIC (E. faecalis VRE): > 128 µg/mL

CSC1O[C@H]([C@H](NC(=O)[C@H]2NC[C@@H]3C[C@H](CC(C)C)CCO[C@H]32)[C@H](C)Cl)C(O)[C@@H](O)[C@H]1O (stereo partly drawn) [FSA-513018b]
activity against a panel of clinically derived MRSA strains [1]: uniformly high activity
MICs [2]: ≤ 2 µg/mL
frequency of resistant clones (E. coli strain SQ110DTC): ~10^−8
post-antibiotic effect on bacterial growth [3]: prolonged effects on bacterial growth
AUC ([4]; iv): 6800 ± 1300 ng·h/mL
Cmax ([4]; iv): 7900 ± 3000 ng/mL
MRT ([4]; iv): 1.2 h
clearance ([4]; iv): 148 mL/min/kg
Vd ([4]; iv, read-out: Vss): 12.5 ± 0.4 L/kg
AUC ([4]; po): 1600 ± 400 ng·h/mL
Cmax ([4]; po): 1600 ± 700 ng/mL
bioavailability ([4]; po): 24%
fraction unbound [5]: 0.05
fraction unbound [6]: 0.08
efficacy in thigh infection model (A. baumanii ATCC 19606): effective
Mice surviving (S. pyogenes ATCC 19615 [7]; 1 mg/kg i.v., Day 1, n=8, clindamycin given as clindamycin phosphate): 8
Mice surviving (S. pyogenes ATCC 19615 [7]; 1 mg/kg i.v., Day 2, n=8): 7
Mice surviving (S. pyogenes ATCC 19615 [7]; 1 mg/kg i.v., Day 3, n=8): 7
Mice surviving (S. pyogenes ATCC 19615 [7]; 1 mg/kg i.v., Day 4, n=8): 7
Mice surviving (S. pyogenes ATCC 19615 [7]; 1 mg/kg i.v., Day 5, n=8): 7
Mice surviving (S. pyogenes ATCC 19615 [7]; 1 mg/kg i.v., Day 6, n=8): 7
Mice surviving (S. pyogenes ATCC 19615 [7]; 1 mg/kg i.v., Day 7, n=8): 7
Mice surviving (S. pyogenes ATCC 19615 [7]; 3 mg/kg i.v., Day 1, n=8): 8
Mice surviving (S. pyogenes ATCC 19615 [7]; 3 mg/kg i.v., Day 2, n=8): 8
Mice surviving (S. pyogenes ATCC 19615 [7]; 3 mg/kg i.v., Day 3, n=8): 8
Mice surviving (S. pyogenes ATCC 19615 [7]; 3 mg/kg i.v., Day 4, n=8): 8
Mice surviving (S. pyogenes ATCC 19615 [7]; 3 mg/kg i.v., Day 5, n=8): 8
Mice surviving (S. pyogenes ATCC 19615 [7]; 3 mg/kg i.v., Day 6, n=8): 8
Mice surviving (S. pyogenes ATCC 19615 [7]; 3 mg/kg i.v., Day 7, n=8): 8
Mice surviving (S. pyogenes ATCC 19615 [7]; 10 mg/kg i.v., Day 1, n=8): 8
Mice surviving (S. pyogenes ATCC 19615 [7]; 10 mg/kg i.v., Day 2, n=8): 8
Mice surviving (S. pyogenes ATCC 19615 [7]; 10 mg/kg i.v., Day 3, n=8): 8
Mice surviving (S. pyogenes ATCC 19615 [7]; 10 mg/kg i.v., Day 4, n=8): 8
Mice surviving (S. pyogenes ATCC 19615 [7]; 10 mg/kg i.v., Day 5, n=8): 8
Mice surviving (S. pyogenes ATCC 19615 [7]; 10 mg/kg i.v., Day 6, n=8): 8
Mice surviving (S. pyogenes ATCC 19615 [7]; 10 mg/kg i.v., Day 7, n=8): 8
rescue of infected animals (S. pyogenes ATCC 19615 [7]; S. pyogenes systemic infection, i.v. twice daily for two days): complete rescue
tolerability (S. pyogenes ATCC 19615 [7]; infected mice, 1, 3 or 10 mg/kg i.v. twice daily for two days, all dose levels): well-tolerated
Clint,mic [8]: 21
reduction in bacterial burden vs clindamycin- and vehicle-treated controls (S. pyogenes ATCC 19615 [9]): statistically significant reductions
reduction in bacterial burden vs clindamycin- and vehicle-treated controls (S. aureus (MRSA)): statistically significant reductions
